Patent US20250230171A1 (MOMA Therapeutics, Inc., priority 2023, published 2025)

How the values were obtained:
DLD1 BRCA2 (−/−) cells = test: 7-day cell viability assay (CellTiter-Glo), DLD1 BRCA2 (−/−); assay type: cell-based, human; conditions: Homo sapiens, DLD-1, 168 h, 7-day CellTiter-Glo, n=2, read-out: Viability IC50 (uM) DLD1 BRCA2 null
Outline: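 7-day growth assay in DLD1 cells with or without BRCA2; seeding densities chosen to keep log-linear growth. Compound: 10 uM top, 3-fold, 9 points. Endpoint: CTG ATP luminescence at RT.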

DLD1 WT cells = test: 7-day cell viability assay (CellTiter-Glo), DLD1 parental (WT); assay type: cell-based, human; conditions: Homo sapiens, DLD-1, 168 h, 7-day CellTiter-Glo, n=2

| Compound | IC50 (DLD1 BRCA2 (−/−) cells) | IC50 (DLD1 WT cells) |
| --- | --- | --- |
| COc1cnc(Cl)cc1-c1cc(C)ncc1C(=O)Nc1nc2c(s1)CN(C(=O)c1ncc(C(F)(F)F)nc1OC)C2 [Example 945, 2′-chloro-5′-methoxy-N-(5-(3-methoxy-5-(trifluoromethyl)pyrazine-2-carbonyl)-5,6-dihydro-4H-pyrrolo[3,4-d]thiazol-2-yl)-6-methyl-[4,4′-bipyridine]-3-carboxamide] | 0.001 to 0.1 µM | ≥ 10 µM |
| COc1cnc(Cl)cc1-c1cc(C)ncc1C(=O)Nc1nc2c(s1)CN(C(=O)c1ccc(C(F)F)nc1C)C2 [Example 947, 2′-chloro-N-(5-(6-(difluoromethyl)-2-methylnicotinoyl)-5,6-dihydro-4H-pyrrolo[3,4-d]thiazol-2-yl)-5′-methoxy-6-methyl-[4,4′-bipyridine]-3-carboxamide] | 0.001 to 0.1 µM | ≥ 10 µM |
| COc1cnc(Cl)cc1-c1cc(C)ncc1C(=O)Nc1nc2c(s1)CN(C(=O)c1nccc(C(F)F)c1F)C2 [Example 949, 2′-chloro-N-(5-(4-(difluoromethyl)-3-fluoropicolinoyl)-5,6-dihydro-4H-pyrrolo[3,4-d]thiazol-2-yl)-5′-methoxy-6-methyl-[4,4′-bipyridine]-3-carboxamide] | 0.001 to 0.1 µM | ≥ 10 µM |
| COc1cnc(Cl)cc1-c1cc(C)ncc1C(=O)Nc1nc2c(s1)CN(C(=O)c1nccc(C(F)(F)F)c1C)C2 [Example 951, 2′-chloro-5′-methoxy-6-methyl-N-(5-(3-methyl-4-(trifluoromethyl)picolinoyl)-5,6-dihydro-4H-pyrrolo[3,4-d]thiazol-2-yl)-[4,4′-bipyridine]-3-carboxamide] | 0.001 to 0.1 µM | ≥ 10 µM |
| COc1cnc(Cl)cc1-c1cc(C)ncc1C(=O)Nc1nc2c(s1)CN(C(=O)c1nc(C(F)(F)F)ccc1Cl)C2 [Example 952, 2′-chloro-N-(5-(3-chloro-6-(trifluoromethyl)picolinoyl)-5,6-dihydro-4H-pyrrolo[3,4-d]thiazol-2-yl)-5′-methoxy-6-methyl-[4,4′-bipyridine]-3-carboxamide] | 0.001 to 0.1 µM | ≥ 10 µM |
| COc1cnc(Cl)cc1-c1cc(C)ncc1C(=O)Nc1nc2c(s1)CN(C(=O)C1CCN(CC(F)(F)F)CC1)C2 [Example 959, 2′-chloro-5′-methoxy-6-methyl-N-(5-(1-(2,2,2-trifluoroethyl)piperidine-4-carbonyl)-5,6-dihydro-4H-pyrrolo[3,4-d]thiazol-2-yl)-[4,4′-bipyridine]-3-carboxamide] | 0.001 to 0.1 µM | ≥ 10 µM |
| COc1cnc(Cl)cc1-c1cc(C)ncc1C(=O)Nc1nc2c(s1)CN(C(=O)c1nccc(C(F)(F)F)c1F)C2 [Example 961, 2′-chloro-N-(S-(3-fluoro-4-(trifluoromethyl)picolinoyl)-5,6-dihydro-4H-pyrrolo[3,4-d]thiazol-2-yl)-5′-methoxy-6-methyl-[4,4′-bipyridine]-3-carboxamide] | 0.001 to 0.1 µM | ≥ 10 µM |
| COc1cnc(Cl)cc1-c1cc(C)ncc1C(=O)Nc1nc2c(s1)CN(C(=O)c1ccc(C(F)(F)F)c(OC)n1)C2 [Example 962, 2′-chloro-5′-methoxy-N-(5-(6-methoxy-5-(trifluoromethyl)picolinoyl)-5,6-dihydro-4H-pyrrolo[3,4-d]thiazol-2-yl)-6-methyl-[4,4′-bipyridine]-3-carboxamide] | 0.001 to 0.1 µM | 5 to 10 µM |
| COc1cnc(Cl)cc1-c1cc(C)ncc1C(=O)Nc1nc2c(s1)CN(Cc1ccc(C(F)F)cc1F)C2 [Example 964, 2′-chloro-N-(5-(4-(difluoromethyl)-2-fluorobenzyl)-5,6-dihydro-4H-pyrrolo[3,4-d]thiazol-2-yl)-5′-methoxy-6-methyl-[4,4′-bipyridine]-3-carboxamide] | 0.001 to 0.1 µM | ≥ 10 µM |
| COc1cnc(Cl)cc1-c1cc(C)ncc1C(=O)Nc1nc2c(s1)CN(C(=O)c1nc(C(F)(F)F)ccc1C)C2 [Example 965, 2′-chloro-5′-methoxy-6-methyl-N-(5-(3-methyl-6-(trifluoromethyl)picolinoyl)-5,6-dihydro-4H-pyrrolo[3,4-d]thiazol-2-yl)-[4,4′-bipyridine]-3-carboxamide] | 0.001 to 0.1 µM | ≥ 10 µM |
| COc1cnc(Cl)cc1-c1cc(C)ncc1C(=O)Nc1nc2c(s1)CN(C(=O)c1nccc(C(F)F)c1OC)C2 [Example 966, 2′-chloro-N-(5-(4-(difluoromethyl)-3-methoxypicolinoyl)-5,6-dihydro-4H-pyrrolo[3,4-d]thiazol-2-yl)-5′-methoxy-6-methyl-[4,4′-bipyridine]-3-carboxamide] | 0.001 to 0.1 µM | ≥ 10 µM |
| COc1cnc(Cl)cc1-c1cc(C)ncc1C(=O)Nc1nc2c(s1)CN(C(=O)c1nccc(C(F)(F)F)c1OC)C2 [Example 968, 2′-chloro-5′-methoxy-N-(5-(3-methoxy-4-(trifluoromethyl)picolinoyl)-5,6-dihydro-4H-pyrrolo[3,4-d]thiazol-2-yl)-6-methyl-[4,4′-bipyridine]-3-carboxamide] | 0.001 to 0.1 µM | ≥ 10 µM |
| CCOc1nc(C(F)(F)F)ccc1C(=O)N1Cc2nc(NC(=O)c3cnc(C)cc3-c3cc(Cl)ncc3OC)sc2C1 [Example 969, 2′-chloro-N-(5-(2-ethoxy-6-(trifluoromethyl)nicotinoyl)-5,6-dihydro-4H-pyrrolo[3,4-d]thiazol-2-yl)-5′-methoxy-6-methyl-[4,4′-bipyridine]-3-carboxamide] | 0.001 to 0.1 µM | ≥ 10 µM |
| CCc1nc(C(F)(F)F)ccc1C(=O)N1Cc2nc(NC(=O)c3cnc(C)cc3-c3cc(Cl)ncc3OC)sc2C1 [Example 970, 2′-chloro-N-(5-(2-ethyl-6-(trifluoromethyl)nicotinoyl)-5,6-dihydro-4H-pyrrolo[3,4-d]thiazol-2-yl)-5′-methoxy-6-methyl-[4,4′-bipyridine]-3-carboxamide] | 0.001 to 0.1 µM | ≥ 10 µM |
| COc1cnc(Cl)cc1-c1cc(C)ncc1C(=O)Nc1nc2c(s1)CN(C(=O)c1ncc(C(F)F)nc1OC)C2 [Example 972, 2′-chloro-N-(5-(5-(difluoromethyl)-3-methoxypyrazine-2-carbonyl)-5,6-dihydro-4H-pyrrolo[3,4-d]thiazol-2-yl)-5′-methoxy-6-methyl-[4,4′-bipyridine]-3-carboxamide] | 0.001 to 0.1 µM | ≥ 10 µM |
| COc1cnc(Cl)cc1-c1cc(C)ncc1C(=O)Nc1nc2c(s1)CN(C(=O)c1cnc(C(F)(F)F)cc1Cl)C2 [Example 973, 2′-chloro-N-(5-(4-chloro-6-(trifluoromethyl)nicotinoyl)-5,6-dihydro-4H-pyrrolo[3,4-d]thiazol-2-yl)-5′-methoxy-6-methyl-[4,4′-bipyridine]-3-carboxamide] | 0.001 to 0.1 µM | ≥ 10 µM |
| COc1cc(C(F)(F)F)ncc1C(=O)N1Cc2nc(NC(=O)c3cnc(C)cc3-c3cc(Cl)ncc3OC)sc2C1 [Example 974, 2′-chloro-5′-methoxy-N-(5-(4-methoxy-6-(trifluoromethyl)nicotinoyl)-5,6-dihydro-4H-pyrrolo[3,4-d]thiazol-2-yl)-6-methyl-[4,4′-bipyridine]-3-carboxamide] | 0.001 to 0.1 µM | ≥ 10 µM |
| COc1cnc(Cl)cc1-c1cc(C)ncc1C(=O)Nc1nc2c(s1)CN(C(C)c1ccc(C(F)F)cc1F)C2 (stereo not drawn) [Example 975, 2′-chloro-N-(5-(1-(4-(difluoromethyl)-2-fluorophenyl)ethyl)-5,6-dihydro-4H-pyrrolo[3,4-d]thiazol-2-yl)-5′-methoxy-6-methyl-[4,4′-bipyridine]-3-carboxamide] | 0.001 to 0.1 µM | ≥ 10 µM |
